In patent US20080031967A1, “Compositions, products and methods for controlling weight in a mammal” (priority 2005, published 2008):

Tests used:
isolated rat adipocytes = settings: dissolved oxygen monitor; cited from earlier work
primary rat adipocytes [1] = test: thermogenesis assay: oxygen consumption by adipocytes (oxygen probe); assay type: cell-based; settings: fatty acid oxidation inhibitors
Protocol: Thermogenesis was measured using an oxygen probe to monitor oxygen consumption by the adipocytes as they oxidize fatty acids. This assay was developed in primary rat adipocytes (isolated as above) using a YSI 5300 monitor equipped with oxygen-sensitive electrodes in an 8-chamber air tight apparatus. […] Since oxygen consumption can be induced by both the Kreb's cycle (glucose metabolism) and β-oxidation (fatty acid metabolism), fatty acid oxidation inhibitors were used to test whether the increase in oxygen consumption is indeed induced by fatty acid oxidation. Valproic acid inhibits the entry of fatty acid into the mitochondria and 4-pentenoic acid inhibits β-ketothiolase (the enzyme in the last step of β-oxidation). […] It has been discovered that the use of the above-listed thermogenic agents in accordance with the present invention results in the effective modulation of thermogenesis in mammals. By “effective,” it is meant that administration of the thermogenic agents of the present invention results in a 10 to 15% increase in thermogenic activity in the in vitro oxygen consumption assay. Without wishing to be bound by theory, it is believed that the thermogenic agents of the present invention function by increasing the rate at which fatty acids are transported into the mitochondria and oxidized in the cell.

primary rat adipocytes [2] = settings: validation compound, stated as known; cited from earlier work

| Compound | effect on oxygen consumption induced by norepinephrine (primary rat adipocytes [1]) | other results |
| --- | --- | --- |
| leptin: adipocyte-derived hormone |  | effect on beta-oxidation in adipocytes (isolated rat adipocytes): stimulates beta-oxidation |
| C=CCCC(=O)O [4-pentenoic acid] | inhibit oxygen consumption induced by norepinephrine |  |
| CCCC(CCC)C(=O)O [Valproic acid] | inhibit oxygen consumption induced by norepinephrine |  |
| NC[C@H](O)c1ccc(O)c(O)c1 [norepinephrine] |  | effect on rate of fatty acid oxidation and oxygen consumption (primary rat adipocytes [2]): increase the rate of fatty acid oxidation and oxygen consumption |
